Laboratory results from patent publication US9399631B2, “Polyphenol proteasome inhibitors, synthesis, and methods of use” (UNIVERSITY OF SOUTH FLORIDA, priority 2003, dated 2016).
“Also recorded” adds a separate entry of the source. Read-outs that look alike come from different tables or passages of the source.

Key:
VA-13 cells = assay: Western blot of p27 in SV40-transformed VA-13 fibroblasts; type: cell-based, human; conditions: 25 μM, 12 hours
Description: (§1) Cell Culture, Cell Extract Preparation, and Western Blot Assay. Human leukemia Jurkat T and prostate cancer LNCaP cells were cultured in RPMI 1640 medium supplemented with 10% fetal calf serum, 100 units/ml of penicillin, and 100 μg/ml streptomycin. Human immortalized, non-transformed NK cells (YT cell line) (38) were cultured in RPMI 1640 supplemented with 1 mM MEM sodium pyruvate solution, 0.1 mM MEM non-essential amino acids solution, 10% fetal calf serum. 100 units/ml penicillin, and 100 μg/ml streptomycin. Normal (WI-38) and simian virus 40 (SV40)-transformed (VA-13) human fibroblasts were grown in Dulbecco's modified Eagle's medium supplemented with 10% fetal calf serum, 100 units/ml of penicillin and 100 μg/ml of streptomycin. All cells were maintained at 37° C. in a humidified incubator with an atmosphere of 5% CO2. A whole cell extract was prepared in accordance with An et al. (An, B. et al. Cell Death Differ, 1998, 5:1062-75). Briefly, cells were harvested, washed with PBS twice, and homogenized in a lysis buffer [50 mM Tris-HCl (pH 8.0), 5 mM EDTA, 150 mM NaCl, 0.5% NP-40, 0.5 mM phenylmethylsulfonyl fluoride, and 0.5 mM dithiothreitol] for 30 min at 4° C. Afterwards, lysates were centrifuged at 12,000×g for 15 min at 4° C., and the supernatants were collected as whole cell extracts. Equal amounts of protein extract (60 μg) were resolved by SDS-polyacrylamide gel electrophoresis and transferred to a nitrocellulose membrane using a Semi-Dry Transfer system (BIO-RAD, Hercules, Calif.). Jurkat T, LNCaP, or DU-145 cells were treated with various concentrations of synthetic or natural tea polyphenols for indicted hours. The enhanced chemiluminescence (ECL) Western blot analysis was then performed using specific antibodies to the proteins of interest (p^27kip, IκB-α, PARP, Bax or actin). The ratio of p27 or IκB-α to the corresponding actin was determined by scanning intensities of the protein bands.
Normal WI-38 and SV40-transformed VA-13 cell lines were treated with 25 μM of (−)-EGCG, (−)-EGCG-amide, (+)-EGCG, (+)-EGCG-amide, or GTP-1 for either 12 hours or 36 hours.

LNCaP cells [1] = assay: Western blot of proteasome target proteins in LNCaP cells; type: cell-based, human; conditions: 25 μM, up to 9 hours
Description: as §1
To investigate whether (−)-EGCG-amide and (+)-EGCG-amide inhibit intact tumor cell proteasome activity, human prostate cancer LNCaP cells were treated with 25 μM of (−)- or (+)-EGCG-amide for up to 9 hours, followed by measurement of p27, IκB-α and Bax, three well-known proteasome target proteins (Pagano, M. et al. Science, 1995, 269:682-685; An, B. et al. Cell Death Differ, 1998, 5:1062-75; Sun, J. et al. Cancer Res, 2001, 61:1280-1284; Palombella, V. J. et al. Cell, 1994, 78:773-785; Thompson, J. E. et al. Cell, 1995, 80:573-582; Perkins, N. D. Trends Biochem Sci, 2000, 25:434-440; Chang, Y. C. et al. Cell Growth Differ, 1998, 9:79-84; Li, B. and Dou, Q. P. Proc Natl Acad Sci USA, 2000, 97:3850-3855; Nam, S. et al. Cancer Epidemiol Biomarkers Prey, 2001, 10:1083-1088). In this experiment (−)-EGCG and (+)-EGCG were used as positive controls.
Having determined that the synthetic GTP-1 to −5 analogs are able to inhibit the proteasomal chymotrypsin-like activity in vitro (FIG. 8), these compounds were investigated for their potency in inhibiting intact tumor cellular proteasome activity. To do so, human prostate cancer LNCaP cells were treated with one of these compounds for the indicated hours, followed by measuring levels of proteasome target proteins, p27, IκB-α, and Bax, and polyubiquitinated proteins.

MCF-7 cells = assay: Proteasome inhibition / p27 accumulation in MCF-7 cells; type: cell-based, human
[2] = biological target: T1, 20S eukaryotic proteasome (Oryctolagus cuniculus, UniProt G1T4Q9); assay: Inhibition of chymotrypsin-like activity of purified eukaryotic 20S proteasome (Suc-Leu-Leu-Val-Tyr-AMC); type: biochemical, rabbit; conditions: chymotrypsin-like activity, rabbit 20S proteasome
T1 construct: purchased BOSTON BIOCHEM (Cambridge, Mass.)
T1 sequence (G1T4Q9 1-263): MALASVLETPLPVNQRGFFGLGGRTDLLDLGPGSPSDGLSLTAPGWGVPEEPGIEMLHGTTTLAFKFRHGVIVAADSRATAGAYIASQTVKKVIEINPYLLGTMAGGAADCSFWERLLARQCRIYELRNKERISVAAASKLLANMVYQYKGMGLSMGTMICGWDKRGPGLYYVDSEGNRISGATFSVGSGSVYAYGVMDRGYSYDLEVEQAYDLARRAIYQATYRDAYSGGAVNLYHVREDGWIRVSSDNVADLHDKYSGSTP
Description: Materials. Highly purified tea polyphenols (−)-EGCG (>95%), (−)-GCG (>98%), (−)-ECG (>98%), (−)-CG (>98%), fetal calf serum, propidium iodide, 3-[4,5-dimethylthiazol-2-yl]-2,5-diphenyltetrazolium bromide (MTT), RNase A, and DMSO were purchased from Sigma (St. Louis, Mo.). (+)-EGCG, benzyl-protected-(+)-EGCG, (+)-GCG, (−)-EGCG-amide, and (+)-EGCG-amide were prepared by enantioselective synthesis (see below). Purified 20S eukaryotic proteasome from rabbit was purchased from BOSTON BIOCHEM (Cambridge, Mass.). Purified 20S prokaryotic proteasome (Methanosarcina thermophile, Recombinant, E. coli) was purchased from CALBIOCHEM (La Jolla, Calif.). Fluorogenic peptide substrates Suc-Leu-Leu-Val-Tyr-AMC (for the proteasomal chymotrypsin-like activity) was obtained from Calbiochem (La Jolla, Calif.). RPMI 1640 medium, Dulbecco's modified Eagle's medium, MEM non-essential amino acids solution, MEM-sodium pyruvate solution, penicillin, and streptomycin were from INVITROGEN (Carlsbad, Calif.). Monoclonal antibody to p27^Kip was purchased from PHARMINGEN (San Diego, Calif.); polyclonal antibodies to IκB-α, Bax and actin, and monoclonal antibody to ubiquitin were from SANTA CRUZ Biotechnology Inc. (Santa Cruz, Calif.).
(§2) Inhibition of purified 20S proteasome activity by natural or synthetic GTPs. Purified prokaryotic (0.5 μg) or eukaryotic (0.02 μg) 20S proteasome was incubated with 20 μM fluorogenic peptide substrate, Suc-Leu-Leu-Val-Tyr-AMC for 30 min at 37° C. in […] of assay buffer (50 mM Tris-HCl, pH 7.5), with or without a natural or synthetic tea polyphenol. After incubation, production of hydrolyzed 7-amido-4-methyl-coumarin (AMC) groups was measured using a multi-well plate VERSAFLUOR Fluorometer with an excitation filter of 380 nm and an emission filter of 460 nm (BIO-RAD), and a multi-well plate reader Wallac 1420 VICTORTM^2 with an excitation filter of 355 nm and an emission filter of 460 nm (EG&G WALLAC).
Purified prokaryotic (0.5 μg) or eukaryotic (0.02 μg) 20S proteasome was incubated with 20 μM fluorogenic peptide substrate, Suc-Leu-Leu-Val-Tyr-AMC for 30 minutes at 37° C. in 100 μl of assay buffer ([…] Tris-HCl, pH 7.5), with or without a natural or synthetic tea polyphenol. After incubation, production of hydrolyzed AMC groups was measured using a multi-well plate VERSAFLUOR Fluorometer with an excitation filter of 380 nm and an emission filter of 460 nm.
(−)-EGCG at 1 μM was incubated with eukaryotic 20S proteasome (0.02 μg) and suc-LLVY-AMC (20 μM) for the times indicated in FIG. 7. The chymotrypsin activity was measured and graphed in FIG. 7. Values are means from 4 independent experiments, and error bars represent standard deviations.
In the second experiment (−)-EGCG at 1 μM was pre-incubated with (SDS-pre) or without 0.01% SDS (no SDS) for 1 hour, followed by addition of eukaryotic 20S proteasome (0.02 μg) and suc-LLVY-AMC (20 μM). “SDS-post” represents the same treatment as “no SDS” except 0.01% SDS was added 1 hour after addition of the proteasome, (−)-EGCG and the substrate. AMC liberation was measured by fluorescence at each indicated time point and the percentage of chymotrypsin activity was determined. Values are means from 4 independent experiments, and error bars represent standard deviations.

purified 20S proteasome [3] = assay: Inhibition of chymotrypsin-like activity of purified 20S proteasome (source not stated); type: biochemical
Description: as §2

[4] = system: 26S proteasome in a Jurkat cell lysate; assay: Chymotrypsin-like activity of 26S proteasome in Jurkat cell lysate; type: biochemical, human; conditions: 10 μM
Description: To determine the specificity of the synthetic GTP analogs, their effects were tested on the chymotrypsin-like and trypsin-like activities of the 26S proteasome in a Jurkat cell lysate. […] (+)-GCG at the same concentration inhibited ˜50% of the chymotrypsin-like activity. The potencies of (+)-EGCG and (+)-GCG were similar to those of their natural partners, respectively (FIG. 17A). […] Furthermore, none of the synthetic or control natural compounds could inhibit more than 15% of activity of a purified calpain enzyme (FIG. 17C). […] Values are mean triplicates and error bars denote standard deviations.

LNCaP cells [5] = assay: Soft agar colony formation assay; type: cell-based, human; conditions: 10 μM, 14 day-incubation
Description: Soft Agar Assay. The soft agar assay was performed according to Smith et al. (Smith, D. M. et al. Mol Med, 2002, 8:382-392) with a few modifications. In brief, in a six-well plate, a bottom feeder layer (0.6% agar) was prepared with DMEM media containing 10% fetal bovine serum, 100 units/ml penicillin, and 100 μg/ml streptomycin. A top layer (0.3% agar) was prepared with DMEM and the same media as described above but containing 2×10^4 prostate cancer LNCaP cells and indicated analogs or DMSO as a control. Plates were incubated at 37° C. in 5% CO2 in a humidified incubator for two weeks. MTT (1 mg/ml) was added to each well and incubated overnight to allow complete formation of purple formazan crystals. The plates were then scanned and photographed, and the number of colonies was quantified by QUANTITY ONE v.4.0.3 software (Bio-Rad, Hercules, Calif.).
The […] effects of several GTP analogs were investigated with a soft agar assay that measures the transforming activity of human tumor cells. LNCaP cells were plated in soft agar (see Materials and Methods) along with 50 μM of GTP-1, -2, -3, (−)-EGCG (as a positive control; Smith, D. M. et al. Mol Med, 2002, 8:382-392, 2002), or the solvent (as a negative control), followed by a 14 day-incubation to allow for colony formation (FIGS. 12A and 12B).
In a second experiment, LNCaP cells were plated in soft agar along with 10 μM of each indicated GTP or solvent (H2O), followed by a 14 day-incubation to allow for colony formation (FIG. 21A). […] Colonies were quantified with an automated counter and presented as mean values from triplicate independent experiments. Error bars denote standard deviations.

purified 20S proteasome [6] = biological target: purified 20S proteasome (UniProt Q9P992); assay: Inhibition of chymotrypsin-like activity of purified 20S proteasome (source not stated); type: biochemical; parameters: other: 1 μM; other: 10 μM; conditions: 10 μM
Chain of purified 20S proteasome (UniProt Q9P992) (Q9P992 whole entry): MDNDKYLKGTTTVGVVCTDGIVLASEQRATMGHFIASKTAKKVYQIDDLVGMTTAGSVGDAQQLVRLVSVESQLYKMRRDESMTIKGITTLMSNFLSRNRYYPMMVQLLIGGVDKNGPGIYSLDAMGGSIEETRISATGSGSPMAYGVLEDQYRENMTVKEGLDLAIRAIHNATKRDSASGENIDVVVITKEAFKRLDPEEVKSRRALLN
Description: as §2

Structure (SMILES)	levels of p27 protein (VA-13 cells)	levels of p27, IκB-α and Bax (LNCaP cells [1])	inhibition of proteasome activity / accumulation of p27 (MCF-7 cells)	IC50 [2] [µM]	inhibition of the proteasome (in words) (purified 20S proteasome [3])	inhibition of the proteasome (in words) (purified 20S proteasome [3]; listed as benzyl protected-EGCG)	inhibition of chymotrypsin-like activity of 26S proteasome [4]	inhibition of colony formation (LNCaP cells [5]) [%]	inhibition of proteasomal activity (purified 20S proteasome [6])
O=C(N[C@H]1Cc2c(O)cc(O)cc2O[C@H]1c1cc(O)c(O)c(O)c1)c1cc(O)c(O)c(O)c1 [(+)-EGCG-amide, (+)-[2S, 3S]-N-[5,7-Dihydroxy-2-(3,4,5-trihydroxyphenyl)-chroman-3-yl]-3,4,5-trihydroxybenzamide]	significantly increased levels of p27 protein	able to increase levels of p27, IκB-α and Bax by 3 hours	able to inhibit the proteasome activity	0.405					
O=C(O[C@H]1Cc2c(OCc3ccccc3)cc(OCc3ccccc3)cc2O[C@H]1c1cc(OCc2ccccc2)c(OCc2ccccc2)c(OCc2ccccc2)c1)c1cc(OCc2ccccc2)c(OCc2ccccc2)c(OCc2ccccc2)c1 [Bn-(+)-EGCG]					can not inhibit the proteasome	cannot inhibit the proteasome; also recorded: fails to inhibit the proteasome	could not inhibit the proteasomal chymotrypsin activity at all	~10	did not significantly inhibit
